Literature values, collected in publication PMC8472830, “Inclusion of Medium-Chain Triglyceride in Lipid-Based Formulation of Cannabidiol Facilitates Micellar Solubilization In Vitro, but In Vivo Performance Remains Superior with Pure Sesame Oil Vehicle” (Pharmaceutics, 2021).

Legend:
[1] = set-up: method as in PMID 32634571; conditions: healthy male volunteers
[2] = set-up: method as in PMID 12412831; conditions: pH 7.4
[3] = set-up: method as in PMID 29109461, PMID 27648135; conditions: rats, oral, natural sesame oil vehicle

Which results are given for `C=C(C)[C@@H]1CCC(C)=C[C@H]1c1c(O)cc(CCCCC)cc1O` [CBD, Cannabidiol]?
Increase of CBD oral absorption in sesame oil compared to CBD powder [1]: eight-fold; clogD7.4 [2]: 6.53; Drug concentration in lymph fluid compared to plasma [3]: 250 fold; Increase of systemic bioavailability of CBD compared to the lipid-free vehicle [3]: 2.8 fold
